Reference: ChEMBL document CHEMBL1773070, “Benzophenone-based derivatives: a novel series of potent and selective dual inhibitors of acetylcholinesterase and acetylcholinesterase-induced beta-amyloid aggregation” (Eur J Med Chem, 2011)

Key:
[1] = molecular target: Acetylcholinesterase (Homo sapiens, UniProt P22303); test: Inhibition of human AChE using acetylthiocholine iodide as substrate by Ellman's assay
[2] = molecular target: Cholinesterase (Homo sapiens, UniProt P06276); test: Inhibition of human BChE using butyrylthiocholine iodide as substrate by Ellman's method
Cholinesterase, sequence (P06276 whole entry): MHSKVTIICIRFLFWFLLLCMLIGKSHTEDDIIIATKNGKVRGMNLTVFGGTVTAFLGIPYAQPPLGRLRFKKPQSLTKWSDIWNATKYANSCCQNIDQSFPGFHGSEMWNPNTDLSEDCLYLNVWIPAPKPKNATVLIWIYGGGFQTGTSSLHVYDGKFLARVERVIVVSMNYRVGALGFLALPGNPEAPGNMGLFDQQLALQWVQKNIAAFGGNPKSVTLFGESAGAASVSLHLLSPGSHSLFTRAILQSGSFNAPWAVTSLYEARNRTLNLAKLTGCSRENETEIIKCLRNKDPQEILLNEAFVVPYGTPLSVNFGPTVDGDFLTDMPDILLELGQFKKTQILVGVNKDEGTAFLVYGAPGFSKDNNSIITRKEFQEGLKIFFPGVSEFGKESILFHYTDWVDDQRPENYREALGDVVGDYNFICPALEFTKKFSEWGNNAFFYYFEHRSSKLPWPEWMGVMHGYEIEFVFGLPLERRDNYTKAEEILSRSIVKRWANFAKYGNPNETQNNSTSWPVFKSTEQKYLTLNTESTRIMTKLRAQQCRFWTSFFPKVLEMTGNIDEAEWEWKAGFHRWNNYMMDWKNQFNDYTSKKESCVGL

Acetylcholinesterase, sequence (P22303 whole entry): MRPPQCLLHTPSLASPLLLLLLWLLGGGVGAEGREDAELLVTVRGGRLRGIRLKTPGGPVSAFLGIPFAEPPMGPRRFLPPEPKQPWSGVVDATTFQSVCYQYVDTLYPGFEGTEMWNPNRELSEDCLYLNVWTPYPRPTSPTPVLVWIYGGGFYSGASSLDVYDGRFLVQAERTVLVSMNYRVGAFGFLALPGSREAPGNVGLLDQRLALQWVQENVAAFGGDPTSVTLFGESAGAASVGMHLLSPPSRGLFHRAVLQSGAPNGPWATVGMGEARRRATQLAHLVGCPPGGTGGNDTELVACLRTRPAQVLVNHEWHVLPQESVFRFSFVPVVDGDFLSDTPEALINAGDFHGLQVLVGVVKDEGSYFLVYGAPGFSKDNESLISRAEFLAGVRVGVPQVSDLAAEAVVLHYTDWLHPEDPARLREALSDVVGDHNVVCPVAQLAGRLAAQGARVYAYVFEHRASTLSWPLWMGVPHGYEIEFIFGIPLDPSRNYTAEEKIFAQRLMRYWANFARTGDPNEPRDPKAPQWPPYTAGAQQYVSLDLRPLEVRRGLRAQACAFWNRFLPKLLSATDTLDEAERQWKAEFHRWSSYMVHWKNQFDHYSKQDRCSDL

Work on CCN(CC)CC(=O)Nc1ccc(C(=O)c2ccc(CN(C)Cc3ccccc3)cc2)cc1 yielded an IC50 [1] of 0.21 µM and an IC50 [2] of 144 µM.
With CN(Cc1ccccc1)Cc1ccc(C(=O)c2ccc(NC(=O)CN3CCCCC3)cc2)cc1 the IC50 [1] was 0.55 µM and the IC50 [2] was 145 µM.
Work on CN(Cc1ccccc1)Cc1ccc(C(=O)c2ccc(NC(=O)CN3CCOCC3)cc2)cc1 yielded an IC50 [1] of 0.72 µM and an IC50 [2] of 179 µM.
CN(Cc1ccccc1)Cc1ccc(C(=O)c2ccc(NC(=O)CCCCN3CCCCC3)cc2)cc1 was tested, and the IC50 [1] was 0.217 µM and the IC50 [2] was 68 µM.
For CCN(CC)CCCOc1ccc(C(=O)c2ccc(CN(C)Cc3ccccc3)cc2)cc1, the IC50 [1] was 0.025 µM and the IC50 [2] was 35 µM.
With CN(Cc1ccccc1)Cc1ccc(C(=O)c2ccc(OCCCN3CCCCC3)cc2)cc1 the IC50 [1] was 0.024 µM and the IC50 [2] was 11 µM.
In the case of CN(Cc1ccccc1)Cc1ccc(C(=O)c2ccc(OCCCN3CCOCC3)cc2)cc1, the IC50 [1] is reported as 0.107 µM and the IC50 [2] is reported as 21 µM.
Work on CN(Cc1ccccc1)Cc1ccc(C(=O)c2ccc(OCCCN3CCC(n4c(=O)[nH]c5ccccc54)CC3)cc2)cc1 yielded an IC50 [1] of 0.068 µM and an IC50 [2] of 39 µM.
CCN(CC)CCCCCOc1ccc(C(=O)c2ccc(CN(C)Cc3ccccc3)cc2)cc1 showed an IC50 [1] of 0.144 µM and an IC50 [2] of 34 µM.
In the case of CN(Cc1ccccc1)Cc1ccc(C(=O)c2ccc(OCCCCCN3CCCCC3)cc2)cc1, the IC50 [1] is reported as 0.143 µM and the IC50 [2] is reported as 10.4 µM.
CCN(CC)CCCCCCOc1ccc(C(=O)c2ccc(CN(C)Cc3ccccc3)cc2)cc1 gave an IC50 [1] of 0.257 µM and an IC50 [2] of 21.9 µM.
Compound CN(Cc1ccccc1)Cc1ccc(C(=O)c2ccc(OCCCCCCN3CCCCC3)cc2)cc1 has an IC50 [1] of 0.21 µM and an IC50 [2] of 9.7 µM.
For CCN(CC)CCCCCCCOc1ccc(C(=O)c2ccc(CN(C)Cc3ccccc3)cc2)cc1, the IC50 [1] was 0.81 µM and the IC50 [2] was 23 µM.
For CN(Cc1ccccc1)Cc1ccc(C(=O)c2ccc(OCCCCCCCN3CCCCC3)cc2)cc1, the IC50 [1] was 0.11 µM and the IC50 [2] was 24.2 µM.
Compound CCN(CC)CCc1ccc(Oc2ccc(C(=O)c3ccc(CN(C)Cc4ccccc4)cc3)cc2)cc1 has an IC50 [1] of 0.13 µM and an IC50 [2] of 209 µM.
In the case of COc1ccc(C(=O)c2ccc(CN(C)Cc3ccccc3)cc2)cc1, the IC50 [2] is reported as > 10 µM.
